The numbers were not newly measured in US6589787B2, “T-type calcium channel variants; compositions thereof; and uses” (Syntex (U.S.A.) LLC, priority 1998, dated 2003), which cites them from elsewhere.

The series deals with T-type Ca^2+ current. The note with it: freshly dissected neurons from dorsal root ganglia (DRG neurons) of adult rats.

In the case of `CCC1(C)CC(=O)NC1=O` (stereo not shown) [ethosuximide], the “block of T-type Ca^2+ current” value is on record as “fully block”.
